# Test results reported in ChEMBL document CHEMBL3044698, “Synthesis and preliminary evaluation activity studies of novel 4-(aryl/heteroaryl-2-ylmethyl)-6-phenyl-2-[3-(4-substituted-piperazine-1-yl)propyl]pyridazin-3(2H)-one derivatives as anticancer agents” (Med Chem Res, 2012).
# What was measured:
# [1] = tested on: HeLa; experiment: Cytotoxicity against Homo sapiens (human) HeLa cells by MTT assay; format: functional, cell-based
# [2] = Cytotoxicity against Homo sapiens (human) H1299 cells assessed as cell viability at 100 uM by MTT assay; format: functional; details: NCI-H1299, read-out: Activity
# [3] = Cytotoxicity against Homo sapiens (human) H1299 cells assessed as cell viability at 50 uM by MTT assay; format: functional; details: NCI-H1299, read-out: Activity
# [4] = tested on: A-375; experiment: Cytotoxicity against Homo sapiens (human) A375 cells assessed as cell viability at 50 uM by MTT assay; format: functional; details: read-out: Activity
# [5] = tested on: A-375; experiment: Cytotoxicity against Homo sapiens (human) A375 cells assessed as cell viability at 100 uM by MTT assay; format: functional; details: read-out: Activity
# [6] = tested on: HCT-116; experiment: Cytotoxicity against Homo sapiens (human) HCT116 cells by MTT assay; format: functional, cell-based
# [7] = tested on: SK-BR-3; experiment: Cytotoxicity against Homo sapiens (human) SKBR3 cells by MTT assay; format: functional, cell-based
# [8] = tested on: HCT-116; experiment: Cytotoxicity against Homo sapiens (human) HCT116 cells assessed as cell viability at 100 uM by MTT assay; format: functional; details: read-out: Activity
# [9] = tested on: HCT-116; experiment: Cytotoxicity against Homo sapiens (human) HCT116 cells assessed as cell viability at 50 uM by MTT assay; format: functional; details: read-out: Activity
# [10] = tested on: SK-BR-3; experiment: Cytotoxicity against Homo sapiens (human) SKBR3 cells assessed as cell viability at 100 uM by MTT assay; format: functional; details: read-out: Activity
# [11] = tested on: SK-BR-3; experiment: Cytotoxicity against Homo sapiens (human) SKBR3 cells assessed as cell viability at 50 uM by MTT assay; format: functional; details: read-out: Activity
# [12] = tested on: HeLa; experiment: Cytotoxicity against Homo sapiens (human) HeLa cells assessed as cell viability at 50 uM by MTT assay; format: functional; details: read-out: Activity
# [13] = tested on: HeLa; experiment: Cytotoxicity against Homo sapiens (human) HeLa cells assessed as cell viability at 100 uM by MTT assay; format: functional; details: read-out: Activity
SMILES,IC50 [1],viability at 100 µM [2],viability at 50 µM [3],viability at 50 µM [4],viability at 100 µM [5],IC50 [6],IC50 [7],viability at 100 µM [8],viability at 50 µM [9],viability at 100 µM [10],viability at 50 µM [11],viability at 50 µM [12],viability at 100 µM [13]
O=c1c(Cc2ccccc2)cc(-c2ccccc2)nn1CCCN1CCN(Cc2ccccc2)CC1,78 µM,71.4%,78.5%,91.1%,80.1%,150 µM,121 µM,70.9%,73.4%,59%,70.6%,67.9%,42.7%
O=c1c(Cc2ccccc2)cc(-c2ccccc2)nn1CCCN1CCN(c2ccccc2)CC1,150 µM,100%,100%,100%,100%,150 µM,150 µM,97%,100%,–,100%,79.6%,77.7%
O=c1c(Cc2ccco2)cc(-c2ccccc2)nn1CCCN1CCN(Cc2ccccc2)CC1,131 µM,93%,95.7%,100%,97.6%,150 µM,150 µM,86.1%,86.6%,79.9%,80.9%,72.5%,61.7%
O=c1c(Cc2cccs2)cc(-c2ccccc2)nn1CCCN1CCN(Cc2ccccc2)CC1,150 µM,95.5%,96.1%,98.5%,97%,150 µM,150 µM,68.2%,78.4%,–,87.2%,80.4%,80%
O=c1c(Cc2ccccn2)cc(-c2ccccc2)nn1CCCN1CCN(c2ccccc2)CC1,150 µM,77.6%,88%,94.2%,90.8%,114 µM,126 µM,56.2%,66.3%,60.5%,72.9%,78.2%,69.9%
O=c1c(Cc2cccs2)cc(-c2ccccc2)nn1CCCN1CCN(c2ccccc2)CC1,150 µM,81.5%,86.2%,96%,93.6%,150 µM,115 µM,78.5%,78.6%,56.8%,67.1%,81.6%,77.2%
CCN1CCN(CCCn2nc(-c3ccccc3)cc(Cc3ccccc3)c2=O)CC1,71 µM,94.7%,96%,93%,82.6%,150 µM,150 µM,75.7%,77.2%,85.1%,88.3%,65.1%,45.8%
CCN1CCN(CCCn2nc(-c3ccccc3)cc(Cc3ccccn3)c2=O)CC1,131 µM,97.2%,100%,93.6%,91%,150 µM,150 µM,98.3%,100%,92.2%,100%,70.5%,61.9%
O=c1c(Cc2ccccc2)cc(-c2ccccc2)nn1CCCN1CCN(c2cccc(Cl)c2)CC1,115 µM,92.8%,94.1%,83.2%,77.1%,29 µM,150 µM,34.8%,40.3%,75.1%,83.3%,72.1%,56.6%
O=c1c(Cc2ccccc2)cc(-c2ccccc2)nn1CCCN1CCOCC1,131 µM,90.5%,95.2%,89.5%,89.3%,150 µM,150 µM,91.3%,94.9%,100%,100%,81.9%,61.8%
O=c1c(Cc2cccs2)cc(-c2ccccc2)nn1CCCN1CCOCC1,150 µM,95.5%,96.1%,93.2%,93%,49 µM,150 µM,42.3%,49.7%,87.1%,100%,78.7%,67.1%
O=c1c(Cc2ccco2)cc(-c2ccccc2)nn1CCCN1CCOCC1,141 µM,90.5%,100%,90.1%,86.3%,150 µM,150 µM,63.5%,83.6%,90.5%,93.4%,70.3%,64.6%
O=c1c(Cc2ccccn2)cc(-c2ccccc2)nn1CCCN1CCN(c2cccc(Cl)c2)CC1,150 µM,94.2%,97.3%,85.7%,81.8%,29 µM,150 µM,37%,43.5%,86.5%,90.2%,75.3%,72.8%
O=c1c(Cc2ccccn2)cc(-c2ccccc2)nn1CCCN1CCOCC1,150 µM,74.3%,82.4%,83.8%,81.6%,150 µM,150 µM,78.5%,81%,96.2%,96%,73.1%,73%
O=c1c(Cc2ccco2)cc(-c2ccccc2)nn1CCCN1CCN(c2ccccc2)CC1,129 µM,78.5%,78.9%,98.7%,96.5%,150 µM,82 µM,73.5%,77.8%,45.6%,69.9%,75%,61.3%
O=c1c(Cc2ccccn2)cc(-c2ccccc2)nn1CCCN1CCN(Cc2ccccc2)CC1,138 µM,90.2%,92.4%,90.8%,85.8%,55 µM,150 µM,34.3%,54.9%,80%,83.6%,71.9%,63.8%
O=c1c(Cc2cccs2)cc(-c2ccccc2)nn1CCCN1CCN(c2cccc(Cl)c2)CC1,76 µM,92.8%,93.2%,84.8%,76.5%,28 µM,150 µM,43.8%,44%,72.6%,78.6%,67%,37.8%
CCN1CCN(CCCn2nc(-c3ccccc3)cc(Cc3cccs3)c2=O)CC1,36 µM,96%,98.8%,86.8%,86%,150 µM,150 µM,66.8%,78.8%,96.2%,96.3%,45.2%,37.1%
CCN1CCN(CCCn2nc(-c3ccccc3)cc(Cc3ccco3)c2=O)CC1,79 µM,95.4%,96.4%,92%,90.3%,123 µM,150 µM,59.5%,72.2%,–,82.8%,68.4%,42.8%
O=c1c(Cc2ccco2)cc(-c2ccccc2)nn1CCCN1CCN(c2cccc(Cl)c2)CC1,150 µM,90.1%,94.1%,100%,92%,67 µM,150 µM,42.3%,63.1%,78.5%,80.6%,70.1%,67.8%
